Source: publication PMC9962304, “Insightful Improvement in the Design of Potent Uropathogenic E. coli FimH Antagonists” (Pharmaceutics, 2023)
Entries after “also recorded” stand apart in the source; their conditions may differ.

Assays:
[1] = system: strain CFT073 adhesion to HTB-9 cells; experiment: Bacterial adhesion assay on bladder cell monolayers; type: cell-based, Escherichia coli / human; settings: for efficiency at reducing FimH-mediated bacterial adherence (result in words): 500 μM, HTB-9 cells, CFT073
Method: To evaluate the efficacy of the synthetic mannoside antagonists to inhibit the ability of CFT073 strain to adhere to epithelial cells, an in vitro adhesion assay was performed. For this purpose, equal amounts of strain CFT073 strain were inoculated in PBS supplemented with different concentrations of each mannoside at final concentrations of 100, 500 μM, and 1 mM and incubated for 3h under static conditions. Bacterial inoculation was used to infect cell line 5637 (HTB-9 cell) monolayers at a multiplicity of infection (MOI) of 10. At 2.5 h post-infection, the number of cell-associated bacteria was calculated by CFU/mL counting (Figure 9). No significant inhibition of bacterial adhesion to bladder cells was obtained using mannoside inhibitors at 100 µM. Conversely, a significant reduction (more than 1 log) in the number of adherent bacteria was observed by increasing the concentration of the mannosides to 500 μM in comparison to non-treated bacteria (Figure 10). The same extent of reduction in bacterial adhesion to bladder cells was obtained by increasing mannosides concentration to 1 mM, thereby showing a dose-dependent effect. […] To appraise qualitatively the reduction of bacterial adhesion, parallel infected cells were fixed, and Giemsa stained.
HTB-9 cells were routinely seeded in cell culture plates and maintained 2–4 days at 37 °C in a humidified atmosphere containing 5% CO2. For the adhesion assay, cells were seeded in 35 mm tissue culture plates at a density of 1 × 10^5 cells/well and incubated at 37 °C for 48 h to reach confluency. CFT073 was grown in LB under mild shaking conditions overnight and resuspended in phosphate buffer (PBS) to an inoculum of ~10^6 CFU/mL (normalized according to OD600). Each mannoside molecule was added to CFT073 inoculant at the final concentrations of 100, 500 μM and 1 mM and incubated for 3 h in static conditions. […] Images were recorded with a Leica DM5000B microscope equipped with DFX340/DFX300 camera and processed using the Leica Application Suite 2.7.0.R1 software (Leica).

[2] = target: T1, FimH lectin domain (amino acids 1-158) (Escherichia coli, UniProt P08191); experiment: biochemical; type: binding, E. coli; settings: for IC50: IC50, competitive inhibition of biotinylated Man-BSA binding to coated FimH lectin; for RIP (relative inhibitory potency): relative to reference MeMan, 23
T1 construct: using a FimH lectin domain (amino acids 1-158) LEctPROFILE kit (provided by GLYcoDiag); purchased GLYcoDiag (Orléans, France)
Method: To measure the relative binding affinity of the newly synthesized compounds 11, 20, and 18 against FimH, the usual referenced standards were used for comparison with previously published data: heptyl α-D-mannopyranoside (HepMan, 21), para-nitrophenyl α-D-mannopyranoside (PNPMan, 22), and methyl α-D-mannopyranoside (MeMan, 23). The relative inhibitory potential of the above compounds was determined against a biotinylated Man-BSA conjugate using a FimH lectin domain (amino acids 1-158) LEctPROFILE kit (provided by GLYcoDiag) (Figure 1, Table 1).
FimH LEctPROFILE kit assays from GLYcoDiag (Orléans, France) were performed according to GlycoDiag’s protocol already described. Briefly, the interaction profiles of each compound were determined through a competitive inhibition assay based on the inhibition by the compounds of the interaction between FimH lectin coated onto the microplate surface and a biotinylated neoglycoprotein NeoM (Man-BSA) as a tracer. A mix of biotinylated Man-BSA (fixed concentration) and the corresponding compounds (range of concentrations) prepared in PBS supplemented with 1 mM CaCl2 and 0.5 mM MgCl2 was deposited in each well (50 µL each) in triplicate and incubated for two hours at room temperature. After washing with PBS buffer, the conjugate streptavidin-DTAF (dichlorotriazinylamino fluorescein) was added (50 µL) and incubated 30 min more. The plate was washed again with PBS. Finally, 100 µL of PBS was added for the readout of fluorescent plate performed with a fluorescence reader (Pherastar microplate reader, BMG labtech, λex = 485 nm, λem = 530 nm). The signal intensity is inversely correlated with the capacity of the compound to be recognized by the lectin and expressed as inhibition percentage with comparison with the corresponding tracer alone. Data analysis was performed with GraphPadPrism software (version 5.03 for windows, San Diego, CA, USA). 50% inhibitory concentration (IC50) was determined according to a standard dose-response/inhibition fitting model with the following equation: y = 100 / (1 + [inhibitor]/IC50) and expressed in nanomolar units.

[3] = system: E. coli FimH; set-up: method as in PMID 28671638; settings: unit inferred; previous work; cited from earlier work
[4] = system: UPEC strain CFT073; experiment: Mannosides as carbon source, CFU/mL counting in PBS; type: cell-based, Escherichia coli; settings: 24 h, 37 °C, 500 μM (D-mannose also 83 mM)
Method: To test whether the above mannoside derivatives could exert bactericidal and/or cytotoxic activities, bacterial growth and cell viability assays were undertaken in the presence of each mannoside at different concentrations. Natural D-mannose (D-Man) was included as control. […] Moreover, no cytotoxic effect was recorded for urinary bladder cell line 5637 (HTB-9 cell) monolayers, as measured by the MTT test (Figure 6). Since D-mannose can serve as nutrient replacement for E. coli when there is a shortage of D-glucose, we tested whether these new derivatives could be used as carbon sources as well [5]. […] Bacteria were incubated for an additional 24 h in the absence and in the presence of different mannosides and the number of viable bacteria was assessed by CFU/mL counting. […] Since carbohydrates can influence the activity of conventional antibiotics, the activity of different classes of antibiotics such as ampicillin (AMP 30 μg/mL), streptomycin (SM 50 µg/mL), and gentamycin (GM 50 µg/mL) in the presence of the synthetic mannoside analogs was evaluated.
Mannosides dissolved in dimethyl sulfoxide DMSO or water at a final concentration of 5 mM were prepared. […] Readings of culture turbidity (OD600) were determined using a plate reader (POLARstar Omega BMG Labtech plate reader, Germany). […]

T1 sequence (P08191 22-179): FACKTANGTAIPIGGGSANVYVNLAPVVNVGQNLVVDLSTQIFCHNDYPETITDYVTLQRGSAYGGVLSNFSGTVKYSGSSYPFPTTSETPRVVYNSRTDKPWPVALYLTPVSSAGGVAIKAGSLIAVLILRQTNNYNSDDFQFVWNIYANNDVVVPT

SMILES | efficiency at reducing FimH-mediated bacterial adherence (result in words) [1] | IC50 [2] | RIP (relative inhibitory potency) [2] | Kd [3] | lower concentration than natural D-mannose for same extent of bacterial adhesion inhibition ([1]; compared with natural D-mannose) | number of viable bacteria (CFU/mL) compared to non-treated control [4]
OC[C@H]1O[C@H](C/C=C/c2ccc3ncccc3c2)[C@@H](O)[C@@H](O)[C@@H]1O [Compound 11] | most efficient; also recorded: better potency in inhibiting bacterial adhesion | 3.17 ± 2.3 nM | 887 | – | – | –
OC[C@H]1O[C@H](C/C=C/c2ccc(-c3ccccc3)cc2)[C@@H](O)[C@@H](O)[C@@H]1O [Compound 18] | – | 30.3 ± 9 nM | 93 | 17 ± 3.5 nM | – | –
OC[C@H]1O[C@H](C/C=C/c2ccccc2-c2ccncc2)[C@@H](O)[C@@H](O)[C@@H]1O [Compound 20] | – | 0.82 ± 0.4 nM | 3428 | – | – | –
CCCCCCCO[C@H]1O[C@H](CO)[C@@H](O)[C@H](O)[C@@H]1O [Compound 21, heptyl α-D-mannopyranoside] | – | 19.4 ± 5.2 nM | 145 | – | – | –
O=[N+]([O-])c1ccc(O[C@H]2O[C@H](CO)[C@@H](O)[C@H](O)[C@@H]2O)cc1 [Compound 22, para-nitrophenyl α-D-mannopyranoside] | – | 74.1 nM | 38 | – | – | –
CO[C@H]1O[C@H](CO)[C@@H](O)[C@H](O)[C@@H]1O [Compound 23, methyl α-D-mannopyranoside] | less efficient | 2810 nM | 1 | – | 164 fold | –
OC[C@H]1OC(O)[C@@H](O)[C@@H](O)[C@@H]1O (stereo partly drawn) [D-mannose] | – | – | – | – | – | supports the growth; also recorded: increased significantly
